Test results published in patent US20020128326A1, “TOPICAL IMMUNOMODULATING COMPOSITIONS FOR TREATMENT OF AIDS, HEPATITIS B&C, OTHER INFECTIOUS DISEASES, AND CANCER” (priority 1998, published 2002).

How the values were obtained:
[1] = rodents; cited from earlier work
[2] = cited from earlier work
HIV-1 = assay: HIV viral load in patients sensitized and rechallenged topically; assay type: in vivo, human
Excerpt: As examples of the HIV viral load reducing effects of the subject compositions, two patients were sensitized with 0.400% diphenylcyclopropenone in a vehicle consisting of equal parts of polyoxysorbitan 20 monooleate and isopropyl myristate and subsequently rechallenged with 0.100% diphenylcyclopropenone in the same vehicle two weeks, four weeks and eight weeks later.

SMILES	LD/50 [1]	toxic effects with repeated human use [2]	HIV-1 RNA Copies/1.0 ml Plasma (HIV-1; Patient #1, Baseline)	HIV-1 RNA Copies/1.0 ml Plasma (HIV-1; Patient #1, Eight Weeks, sensitized 0.400%, rechallenged 0.100% topically)	HIV-1 RNA Copies/1.0 ml Plasma (HIV-1; Patient #1, Four Weeks, sensitized 0.400%, rechallenged 0.100% topically)	HIV-1 RNA Copies/1.0 ml Plasma (HIV-1; Patient #1, Two Weeks, sensitized 0.400%, rechallenged 0.100% topically)	HIV-1 RNA Copies/1.0 ml Plasma (HIV-1; Patient #2, Baseline)	HIV-1 RNA Copies/1.0 ml Plasma (HIV-1; Patient #2, Eight Weeks, sensitized 0.400%, rechallenged 0.100% topically)
CC(C)=O [Acetone]	10.7 mg/kg	epidermal erythema, dryness, headache, bronchial irritation, CNS effects including fatigue and excitement						
O=c1c(-c2ccccc2)c1-c1ccccc1 [diphenylcyclopropenone]			400 Copies Copies/1.0 ml Plasma	79 Copies/1.0 ml Plasma	60 Copies/1.0 ml Plasma	118 Copies/1.0 ml Plasma	440 Copies/1.0 ml Plasma	351 Copies/1.0 ml Plasma
